# Tests used:
# mouse ES cell = assay: Subculture of ES cells, alkaline phosphatase quantified by colony assay; format: cell-based
# Description: For the ES cells prepared by the method described in (3) preparation of the mouse ES cell of Example 1, 3×10^5 cells were seeded on a 6 cm-diameter cell culture dish coated previously with a 0.1% aqueous gelatin solution to make 4.5 mL of the ES cell assay medium. 0.5 mL of the differentiation inhibiting agent (A to F and a to o) of the present invention, which was dissolved in dimethylsulfoxide (DMSO) or culture medium, or their mixture to make 10 to 40 μg/mL per each dish, or 10^4 units/mL of ESGRO was added. The final concentration of DMSO in the culture medium was 0.1% or lower. As the control, only DMSO was made the final concentration in 0.1% by adding 0.5 mL of a 1% concentration solution diluted with the medium. Culturing was conducted at 37° C. in 5% CO2 incubator for 7 to 30 days. The medium was replaced every day, and the cells were passaged to make 3×10^5 cells/dish for every 2 to 3 days.
# The alkaline phosphatase activity of the ES cells cultured for 7 or 30 days by using the differentiation inhibiting agents of the present invention was quantified by applying colony assay. […] The absorbance at 405 nm (O.D.405) and absorbance at 690 nm (O.D.690) of the solution were measured by using the spectrophotometer (Molecular Devices Corp. made, type: SPECTRA MAX190), and the value calculated from O.D.405-O.D.690 was determined as the alkaline phosphatase activity.
# Nanog gene = Nanog gene expression level by real time PCR (ES cell differentiation inhibition assay 3); format: cell-based, mouse; details: D3ES cells, 4 μg/mL, 1 day, GAPDH internal standard, FIG. 7
# Description: For the D3ES cells prepared by the method described in (3) preparation of a mouse ES cell of Example 1, 7.85×10^5 cells were seeded in a 10 cm-diameter cell culture dish coated previously with a 0.1% aqueous gelatin solution to make 10 mL of the ES cell assay medium. The differentiation inhibiting agent B of the present invention in the final concentration of 4 μg/mL or ESGRO in the final concentration of 1×10^3 unit/mL was added to each dish, and culturing was carried out at 37° C. in 5% CO2 incubator for 1 day.
# The total RNA was extracted from the ES cell cultured by the method shown in (3) ES cell differentiation inhibition assay 3 as described above by using ISOGEN (K.K. Nippon Gene Corp. Japan made) by the attached method. In this method, the cell was collected in a 15 mL sterilized tube, centrifuged at 1,000 rpm for about 5 minutes by using the table centrifuge (TOMY SEIKO made) to make pellets. The supernatant was removed, the pellets were washed twice with 10 mL of PBS, and then, transferred to a 1.5 mL Eppendorf tube. The pellets were dissolved in 1 ml ISOGENE and left stand at room temperature for 5 minutes and, then, added with 0.2 mL of chloroform (Wako Pure Chemicals), shaken for 15 seconds, and left stand at room temperature for 2 or 3 minutes. Centrifugation was carried out at 4° C. at 10,000 rpm for 15 minutes by using the micro centrifuge (TOMY SEIKO made), 400 μL of the supernatant was transferred to a fresh 1.5 mL Eppendorf tube. 500 μL of isopropanol (Wako Pure Chemicals) was added and the mixture was left stand at room temperature for 10 minutes and, then, was centrifuged at 4° C. at 10,000 rpm for 10 minutes by using the micro centrifuge. The supernatant was removed and, then, 1 mL of a 70% ethanol aqueous solution was added. The mixture was shaken and then was centrifuged at 4° C. at 10,000 rpm for about 5 minutes by using the micro centrifuge. The supernatant was removed and the precipitation was dried and, then, dissolved in 30 μL of distilled water to obtain the total RNA solution.
# The cDNA was synthesized by using 2 μg of the total RNA obtained by such the way as the template, using DeoxyribonucleaseI (Amplification Grade) (Invitrogen Corp. made) and SuperScript III First-Strand Synthesis System for RT-PCR (Invitrogen Corp. made, 18080-051) by the attached protocol. In this step, 1 μL of 10× DNaseI Reaction Buffer, 1 μL of 10× DNaseI (all these were of Invitrogen Corp. made) were added to 2 μg of the total RNA to give the total volume of 10 μL by adding distilled water to prepare the reaction solution, and then incubation was carried out at room temperature for 10 minutes. 1 μL of 25 mM EDTA solution was added, and the mixture was heated at 65° C. for 10 minutes and then, cooled to room temperature. 8 μL of the reaction solution was taken out, and 1 μL of […] Oligo(dT) 20 primer and 1 μL of 10 mM dNTP Mix were added, and incubation was carried out at 65° C. for 5 minutes. The reaction solution was placed on ice for 1 minute, and then 2 μL of 10× RT Buffer, 4 μL of 25 mM MgCl2, 2 μL of 0.1 M DTT, 1 μL of RNaseOUT (Invitrogen Corp. made) and 1 μL of SuperScript III RT were added for incubation at 50° C. for 50 minutes. Subsequently, incubation was carried out at 85° C. for 5 minutes, and then the mixture was left stand on ice for 1 min. […] The expression level of the Nanog gene and the glyceraldehyde-3-phosphate dehydrogenase (GAPDH) gene as the internal standard were measured. […]
Structure (SMILES),"alkaline phosphatase activity of subcultured ES cells in comparison with ES cells cultured by using DMSO (0.1%) (mouse ES cell; subcultured in the medium without serum for 7 days by adding the compound, FIG. 14)","expression level of Nanog gene in comparison with medium without agent and medium containing 1,000 units/mL of ESGRO (Nanog gene)","alkaline phosphatase activity of subcultured ES cells in comparison with ES cells cultured by using DMSO (0.1%) (mouse ES cell; subcultured for 30 days by adding the compound, FIG. 13)"
"COc1ccc(N=NC(C(N)=O)=C2NC(C)(C)Cc3ccccc32)cc1 [F, 2-(3,3-dimethyl-3,4-dihydro-2H-isoquinoline-1-ylidene)-2-(4-methoxy-phenylazo)-acetamide]",increased significantly,increased similarly to the differentiation inhibiting agents B,–
"CC1(C)Cc2ccccc2C(=C(N=Nc2cccc(Cl)c2)C(N)=O)N1 [C, 2-(3-chloro-phenylazo)-2-(3,3-dimethyl-3,4-dihydro-2H-isoquinoline-1-ylidene)-acetamide]",–,increased similarly to the differentiation inhibiting agents B,–
"CC1(C)Cc2ccccc2C(=C(N=Nc2cccc([N+](=O)[O-])c2)C(N)=O)N1 [E, 2-(3,3-dimethyl-3,4-dihydro-2H-isoquinoline-1-ylidene)-2-(3-nitro-phenylazo)-acetamide]",–,increased similarly to the differentiation inhibiting agents B,–
"CC(=O)c1ccc(/N=N/C(C(N)=O)=C2/NC(C)(C)Cc3ccccc32)cc1 [compound B, 2-(4-acetyl-phenylazo)-2-(3,3-dimethyl-3,4-dihydro-2H-isoquinoline-1-ylidene)-acetamide]",–,increased significantly,increased significantly
